Assay: gradient 5% acetonitrile 3 min, to 50% in 2 min, to 85% in 15 min, held 3 min, 100 µL/min
Details: column: Zorbax Extend-C18 2.1 x 50 mm; eluents: water / acetonitrile, 0.1% formic acid
Outline: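 The mobile phases were water and acetonitrile, each with 0.1% formic acid, pumped at 100 μL/min through a Zorbax Extend-C18 column (2.1 × 50 mm, 1.8 μm). Pure standards were injected as mixtures of ~100 molecules and detected by a quadrupole time-of-flight mass spectrometer in positive and negative ionization mode. Retention time came from computationally picked adduct peaks, each inspected by hand.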

Row | SMILES | RP-LC retention time [s]
1 | CC(C)c1ccc(NC(=O)CN2C(=O)C3CCCCN3c3ccc(C(=O)N4CCOCC4)cc32)cc1 (stereo not drawn) | 909
2 | O=C(NCCOc1ccc2c(c1)OCO2)c1ccccc1Cl | 785
3 | Cc1ccccc1NC(=O)N(C)Cc1ccsc1 | 866
4 | O=S(=O)(c1cccnc1)N1CC[C@@H]2COCCN(Cc3cccnc3)[C@@H]2C1 | 577
5 | CCN1C(=O)c2cccnc2Sc2cc(NC(=O)C(C)(C)C)ccc21 | 795
6 | O=c1c2cnc3nc(-c4ccccc4)nn3c2ccn1CCc1c[nH]c2ccc(Cl)cc12 | 997
7 | Cn1c(=O)c(N2CCC(NC(=O)Nc3ccccc3F)CC2)nc2ccccc21 | 910
8 | CC(=O)Nc1nsc(N2CCC(C(=O)NCc3ccc(F)cc3Cl)CC2)n1 | 863
9 | COC(=O)C1C(O)CCC2CN3CCc4c([nH]c5ccccc45)C3CC21 (stereo not drawn) | 673
10 | CCSc1nc2ccc(NS(=O)(=O)c3ccc(C)c(C)c3)cc2s1 | 1080
11 | O=C(Nc1ccccc1F)N1C[C@H]2C[C@@H](C1)c1cccc(=O)n1C2 | 610
12 | COc1cnc(SC)nc1Nc1ccc(C#N)cc1 | 853
13 | CCNC(=O)C1CCN(C(=O)N2C[C@H]3C[C@H](C2)[C@H]2CCCC(=O)N2C3)CC1 | 599
14 | O=C(c1ccccn1)N1CCC(n2c(-c3ccoc3)nc3cccnc32)C1 (stereo not drawn) | 631
15 | CC(C)CCNC(=O)C1(C)Cn2nc(C(=O)N3CCN(C4CCCCC4)CC3)cc2C(=O)N1C (stereo not drawn) | 620
16 | CCOc1ccc2nc(Nc3nc(C)c4c(n3)CCCC4)nc(C)c2c1 | 573
17 | CCOc1ccc(-c2noc(Cc3nc(-c4ccc(F)cc4)cs3)n2)cc1 | 1290
18 | CCCCN(C)CCNC(=O)c1cc2cc3ccc(OC)cc3nc2o1 | 641
19 | COC1C(=O)N(c2cccc(F)c2)C12CCN(S(=O)(=O)Cc1ccccc1F)CC2 (stereo not drawn) | 1040
20 | Cc1ccc(S(=O)(=O)CC(=O)Nc2nc(-c3ccc4c(c3)OCO4)cs2)cc1 | 924
21 | CC(=O)N1CCC(n2c(C)nc(C(=O)Nc3ccc4c(c3)OCO4)c2C)CC1 | 603
22 | COc1cccc(NC(=O)CN2CCC(c3nc(-c4cccs4)no3)CC2)c1 | 680

Row | SMILES | RP-LC retention time [s]
23 | CCn1nnc(NCc2ccc(-c3cc(Cl)ccc3Cl)o2)n1 | 1110
24 | O=C(Nc1ccc(S(=O)(=O)N2CCCCC2)cc1)c1cc(-c2ccccc2)on1 | 598
25 | O=S(=O)(c1ccc(C(F)(F)F)cc1)N1CC(c2nc(-c3ccncc3)no2)C1 | 888
26 | N#Cc1cc(NC(=O)c2ccc3c(c2)OCO3)ccc1N1CC2CC(C1)c1cccc(=O)n1C2 (stereo not drawn) | 749
27 | CC1CN(C(=O)Cn2cc(SCC(=O)N3CCCCCC3)c3ccccc32)CC(C)O1 (stereo not drawn) | 889
28 | CCOC(=O)C(C)Sc1nnc(NC(=O)c2cccc([N+](=O)[O-])c2C)s1 (stereo not drawn) | 859
29 | CCc1ccc(CNC(=O)Cn2ccc3ccc(N4CCCCC4)nc32)cc1 | 999
30 | COc1cc(NC(=O)N2CCCN(c3ccc(=O)n(-c4ccc(F)cc4)n3)CC2)cc(OC)c1OC | 702
31 | C[C@]12CCC3C(CC[C@H]4C[C@H](O)CC[C@]34C)C1CC[C@@H]2C(=O)CO (stereo partly drawn) | 1020
32 | Cc1ccnc(N2CCC(C(=O)N3CCN(Cc4ccc5c(c4)OCO5)CC3)CC2)n1 | 590
33 | O=C(NCc1ccc(F)cc1F)C1CCCN(c2ccc(-c3ccccc3)nn2)C1 (stereo not drawn) | 722
34 | O=C1CCSc2c1cccc2C(=O)N1CCOCC1 | 601
35 | CCOC(=O)C1CCCN(c2ccc(-n3nc(C)cc3C)nn2)C1 (stereo not drawn) | 680
36 | CCOC(=O)c1cnc2c(-c3ccc(F)cc3)c(COC)nn2c1N | 981
37 | Cc1ccc(NC(=O)CN2CCc3[nH]c4c(C)c(Cl)ccc4c(=O)c3C2)c(Cl)c1 | 741
38 | CCn1cc(CN2CCn3c(nnc3[C@@H]3C[C@@H](O)CN3Cc3cccnc3)C2)c(C)n1 | 513
39 | Cc1csc(-c2cc(S(=O)(=O)NC3CCCCC3)cn2CC(=O)N2CCCCC2)n1 | 1010
40 | Cc1nn(-c2ccc(N3CCOCC3)nn2)c(C)c1CCC(=O)Nc1ccccc1F | 709
41 | O=C1Oc2ccccc2C(=O)/C1=C1/C=C(c2ccccc2)SS1 | 1210
42 | Cc1cc(C)cc(N2CCC(NC(=O)Nc3ccc(F)cc3F)C2=O)c1 (stereo not drawn) | 904
43 | CCOC(=O)c1[nH]c(C)c(CCC(=O)N2CCC(C(=O)NCCc3ccco3)CC2)c1C | 743
44 | Cc1nn(C)c2nc(OC(C)C(=O)NCCc3ccccc3)cc(C(F)(F)F)c12 (stereo not drawn) | 972

Row | SMILES | RP-LC retention time [s]
45 | Cc1cc(-c2c(C)sc(C)c2S(=O)(=O)NC2CCCc3ccccc32)n[nH]1 (stereo not drawn) | 1120
46 | CCN1CCN(S(=O)(=O)c2ccc(Cl)c(C(F)(F)F)c2)CC1 | 569
47 | Cc1cc(-c2nnc(C3CCC3)o2)c(C)n1CC(=O)NCc1ccc(C(F)(F)F)cc1 | 941
48 | CNC(=O)c1cccc(C(=O)N(C)c2ccccc2)n1 | 662
49 | Cc1cc2n(n1)CCC(=O)N2CCCC(=O)NCCCc1ccccc1 | 691
50 | CCOc1ccc(C2Cn3nnc(-c4nc(-c5ccsc5)no4)c3CO2)cc1 (stereo not drawn) | 1150
51 | CO[C@H]1C(=O)N(C(C)C)[C@H]1C1CCN(C(=O)Cn2ccnc2)CC1 | 562
52 | COc1cccc(-c2noc(Cn3c(=O)n(-c4cccc(OC)c4)c(=O)c4sccc43)n2)c1 | 970
53 | O=C(CSc1ccc(N2CCCC(C(=O)NC3CC3)C2)nn1)Nc1ccc(Br)cc1 (stereo not drawn) | 691
54 | CCn1ccc2cc(S(=O)(=O)N3CCCC(C(=O)NC4CCCCC4)C3)ccc21 (stereo not drawn) | 1010
55 | COCCn1ccc2nc(C)c(C(=O)NCc3ccc4c(c3)OCO4)cc2c1=O | 664
56 | C=CCN1C(=O)COc2ccc(-c3nc(NC(=O)C(F)(F)F)sc3C)cc21 | 932
57 | Cc1cc(-c2nnc(NC(=O)c3ccc4c(c3)OCCO4)o2)n(C)n1 | 655
58 | COc1ccc(-c2cc(=O)c3c(O)cc(O)cc3o2)cc1OC | 770
59 | Cc1cc(C)n2c(Nc3ccc(C(C)C)cc3)c(-c3ccc(Cl)cc3)nc2n1 | 985
60 | Fc1cccc(Nc2ncnc3c2cnn3-c2ccccc2)c1 | 1020
61 | CC(Oc1ccccc1)C(=O)N1CCC(c2cc(N)on2)CC1 (stereo not drawn) | 674
62 | Cn1nc(C(=O)N2CCCCC2)c2c1CCN(C(=O)CCC(=O)NCCN1CCCCCC1)C2 | 590
63 | COc1cc(-c2nc3cc(C)ccn3c2Nc2ccc3c(c2)OCCO3)ccc1O | 636
64 | CC(C)(C)CC(=O)N1CCN(c2nc(CN3CCOCC3)cs2)CC1 | 611
65 | COc1ccc(Cl)cc1NC(=O)NCCCn1c(C(F)(F)F)nc2cccnc21 | 890
66 | COc1ccc(OC)c(CC2C(=O)Nc3c(C)cccc32)c1 (stereo not drawn) | 882

Row | SMILES | RP-LC retention time [s]
67 | CN1C(=O)c2cccnc2Sc2cc(NC(=O)c3c(F)cccc3Cl)ccc21 | 783
68 | CC1=C(c2ccc(F)cc2)S(=O)(=O)N=C1N1CCC(NC(=O)CCC(C)C)CC1 | 844
69 | O=C(Cn1cnc2ccccc2c1=O)N1CCC(c2nnc(-c3ccco3)o2)CC1 | 621
70 | CCOc1ccc(-c2cc(C(F)(F)F)nn2-c2nc(-c3ccc(F)cc3)cs2)cc1 | 882
71 | Cc1cccc(NC(=O)C2CCc3nc(N4CCOCC4)ncc3C2)c1C (stereo not drawn) | 698
72 | CN(CCCNC(=O)Cn1c(=O)c2cccn2c2ccc(F)cc21)C1CCCCC1 | 635
73 | CC(Cc1ccco1)NC(=O)c1cc(-c2ccccn2)nc2ccccc12 (stereo not drawn) | 843
74 | CCc1nnc(-c2ccc3ccn(CC(=O)NCCc4ccccc4)c3c2)o1 | 836
75 | CN(Cc1ccco1)C(=O)c1ccc(-n2cc(CNC(=O)C3CCC3)cn2)cc1 | 672
76 | CCN1CCN(CCCNC(=O)c2nnc(-c3ccc(S(=O)(=O)N4CCCC4)cc3)o2)CC1 | 581
77 | COCCn1cc(CCNC(=O)Nc2cc(C)cc(C)c2)c2cccnc21 | 776
78 | CN(C)S(=O)(=O)c1ccc2c(c1)N(CC(=O)NCc1ccc(Cl)cc1)C(=O)C1CCCCN21 (stereo not drawn) | 932
79 | Cc1ccc2c(C)nc(NC3=NCN(Cc4ccccc4)CN3)nc2c1 | 772
80 | O=C(CSc1ccc(N2CCCC(C(=O)NC3CC3)C2)nn1)Nc1cc(F)ccc1Cl (stereo not drawn) | 660
81 | CN1CCCc2cc(C(=O)NC3CCCCCC3)sc21 | 755
82 | CCc1csc(-c2ccc(N3CCN(C(=O)Cc4ccc(F)cc4)CC3)nc2)n1 | 925
83 | Cc1cc(N2CCOCC2)nc(N2CCN(C(=O)c3c(F)cccc3F)CC2)n1 | 1050
84 | COc1ccc2c(c1)C1(CCN(C(=O)c3ccccc3)C1)C(=O)N2 (stereo not drawn) | 692
85 | COc1ccc2c(c1)C1(CCN(S(=O)(=O)c3ccc(F)c(F)c3)C1)C(=O)N2C (stereo not drawn) | 964
86 | COc1ccc(-c2cc(C(=O)Nc3ccc(F)cc3)nn2C2CCS(=O)(=O)C2)cc1 (stereo not drawn) | 930
87 | CN(C)CCn1nnc2cc(-c3noc(-c4ccc(C#N)cc4)n3)ccc21 | 643
88 | COCCCNC(=O)C1CCN(C(=O)c2ccc(-n3c(C)cc4ccccc43)s2)CC1 | 854
